Measurements taken from US20090137499A1, “BENZYLPHENYL GLUCOPYRANOSIDE DERIVATIVE” (priority 2006, published 2009).

Target: T1, human SGLT2 (Homo sapiens, UniProt P31639)
T1 construct: expressed in transfected cells
T1 sequence (P31639 1-672): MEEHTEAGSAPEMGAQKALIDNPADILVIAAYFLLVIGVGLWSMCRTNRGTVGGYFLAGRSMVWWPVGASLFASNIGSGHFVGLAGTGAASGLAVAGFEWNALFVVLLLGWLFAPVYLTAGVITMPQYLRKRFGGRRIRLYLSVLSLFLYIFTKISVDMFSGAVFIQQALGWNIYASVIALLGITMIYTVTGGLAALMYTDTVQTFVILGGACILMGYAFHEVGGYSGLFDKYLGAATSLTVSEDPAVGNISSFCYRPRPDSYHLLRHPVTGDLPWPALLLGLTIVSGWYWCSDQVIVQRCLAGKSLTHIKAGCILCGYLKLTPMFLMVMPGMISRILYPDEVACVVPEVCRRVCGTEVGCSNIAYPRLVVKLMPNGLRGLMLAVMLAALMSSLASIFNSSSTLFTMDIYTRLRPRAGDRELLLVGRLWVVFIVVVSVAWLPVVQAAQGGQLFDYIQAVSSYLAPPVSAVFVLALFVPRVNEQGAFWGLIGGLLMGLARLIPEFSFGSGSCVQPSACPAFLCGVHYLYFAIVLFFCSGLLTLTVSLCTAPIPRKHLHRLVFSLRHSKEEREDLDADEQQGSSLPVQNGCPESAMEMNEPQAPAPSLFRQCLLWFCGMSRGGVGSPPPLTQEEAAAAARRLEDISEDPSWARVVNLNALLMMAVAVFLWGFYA
Assay: Determination of SGLT2 inhibiting activity using human SGLT2 expressing cell ([14C]-α-methyl-D-glucopyranoside uptake)
Format: cell-based
Details: HEK-SGLT2 cells, 1 mM [14C]-α-methyl-D-glucopyranoside, 37° C., 30 min
Method: Determination of SGLT2 Inhibiting Activity Using Human SGLT2 Expressing Cell
1) Preparation of Vector Expressing Human SGLT2 cDNA in Animal Cell
Amplification was performed by PCR using human SGLT2 cDNA clone (Origene: Clone Number, TC303267; GenBank accession number, NM 003041) as a template. The sense oligonucleotide primer for PCR was 5′-[…]-3′ (Primer 3: SEQ ID NO: 3 in the sequence listing),
and the antisense oligonucleotide primer was 5′-[…]-3′ (Primer 4: SEQ ID NO: 4 in the sequence listing). The PCR product was subjected to agarose electrophoresis, then a target DNA fragment was recovered from a single band corresponding to 2037 bases, digested with restriction enzymes HindIII and XhoI, and introduced into the HindIII/XhoI site of vector pCMV-Script (Stratagene) to obtain SGLT2 expressing plasmid pCMV-SGLT2. A HindIII/XhoI fragment was excised from pCMV-SGLT2 and introduced into the BamHI/XhoI site of pENTR1A (Gateway, Invitrogen) to prepare pENTR-SGLT2. Retrovirus vector pLPCX (Clontech) into which Gateway Vector Conversion System Cassette A (Invitrogen) was introduced was used as the destination plasmid to prepare SGLT2 expressing retrovirus vector pLPCX-SGLT2.
2) Establishment of Human SGLT2 Expressing Cell
The retrovirus pLPCX-SGLT2 obtained in 1) was transfected into integrin αvβ3 expressing HEK-293 cells, the cells were treated with antibiotic G418 (brand name, Geneticin: Invitrogen) and puromycin (Clontech) to obtain HEK-SGLT2 cells stably expressing the target vector having resistance. The stably expressing cells were cultured and maintained in DMEM medium containing […] G418, […] puromycin, 3 mM KGT-1075, and 10% FBS.
3) Determination of SGLT2 Inhibiting Activity
HEK-SGLT2 cells were suspended at a density of 10^6 cells/mL in DMEM medium containing 250 mg/mil G418, 1 mg/ml puromycin, and 10% FBS, and 100 μL was seeded in each well of a type 1 collagen-coated 96-well culture plate (Corning). On the following day, the medium was replaced with a sugar uptake buffer (10 mM HEPES [pH 7.5], 5 mM Tris-HCl [pH 7.5], 140 mM NaCl, 2 mM KCl, 1 mM CaCl2, 1 mM MgCl2), and the cells were cultured with 1 mM [^14C]-α-methyl-D-glucopyranoside (0.1 mCi) and a test compound at 37° C. for 30 min, and then washed 3 times with a washing buffer (10 mM HEPES (pH 7.5), 5 mM Tris-HCl (pH 7.5), 140 mM choline chloride, 2 mM KCl, 1 mM CaCl2, 1 mM MgCl2). 100 μL of liquid scintillation cocktail (brand name, Supermix: Perkin-Elmer) was added to each well of the 96-well plate and stirred for 10 min, and then radioactivity was determined with micro β (Perkin-Elmer), a type of liquid scintillation counter. The value obtained by deducting the radioactivity in the presence of an excess amount of an SGLT2 inhibiting compound as the background from each measured value was taken as the sugar uptake activity, the inhibition rate (%) was calculated from the control sugar uptake activity obtained without using a test compound and the sugar uptake activity obtained using a test compound having a predetermined concentration, and the concentrations of the test compound at which the sugar uptake activity was inhibited by 50% were assessed.

## COc1ccc(Cc2cc(CO)cnc2O[C@@H]2O[C@H]([C@@H](C)O)[C@@H](O)[C@H](O)[C@H]2O)cc1 [Example 38, 3-(4-Methoxybenzyl)-5-hydroxymethylpyridin-2-yl 7-deoxy-D-glycero-β-D-gluco-heptopyranoside]
  IC50: 17 nM

## COc1ccc(Cc2c(C)cc(CO)cc2O[C@@H]2O[C@H]([C@@H](C)O)[C@@H](O)[C@H](O)[C@H]2O)cc1 [Example 94, 5-Hydroxymethyl-2-(4-methoxybenzyl)-3-methylphenyl 7-deoxy-D-glycero-β-D-gluco-heptopyranoside]
  IC50: 11 nM

## CCc1ccc(Cc2c(F)cc(CO)cc2O[C@@H]2O[C@H]([C@@H](C)O)[C@@H](O)[C@H](O)[C@H]2O)cc1 [Example 47, 2-(4-Ethylbenzyl)-3-fluoro-5-hydroxymethyl-phenyl 7-deoxy-D-glycero-β-D-gluco-heptopyranoside]
  IC50: 38 nM

## Cc1cc(CO)cc(O[C@@H]2O[C@H]([C@@H](C)O)[C@@H](O)[C@H](O)[C@H]2O)c1Cc1ccc(OC2CC2)cc1 [Example 96, 2-(4-Cyclopropoxybenzyl)-5-hydroxymethyl-3-methyl-phenyl 7-deoxy-D-glycero-β-D-gluco-heptopyranoside]
  IC50: 36 nM

## Cc1ccc(Cc2c(F)cc(CO)cc2O[C@@H]2O[C@H]([C@@H](C)O)[C@@H](O)[C@H](O)[C@H]2O)cc1 [Example 97, 3-Fluoro-5-hydroxymethyl-2-(4-methylbenzyl)phenyl 7-deoxy-D-glycero-β-D-gluco-heptopyranoside]
  IC50: 11 nM

## C[C@@H](O)[C@H]1O[C@@H](Oc2cc(CO)cc(F)c2Cc2ccc(OC3CC3)cc2)[C@H](O)[C@@H](O)[C@@H]1O [Example 63, 2-(4-Cyclopropoxybenzyl)-3-fluoro-5-hydroxymethyl-phenyl 7-deoxy-D-glycero-β-D-gluco-heptopyranoside]
  IC50: 34 nM

## CCc1ccc(Cc2ccc(N)cc2O[C@@H]2O[C@H](C(C)O)[C@@](C)(O)[C@H](O)[C@H]2O)cc1 (stereo partly drawn) [Example 41, 5-Amino-2-(4-ethylbenzyl)phenyl 4-C-methyl-7-deoxy-glycero-β-D-gluco-heptapyranoside]
  IC50: 14 nM

## COc1ccc(Cc2c(C)cc(C)cc2O[C@@H]2O[C@H]([C@@H](C)O)[C@@H](O)[C@H](O)[C@H]2O)cc1 [Example 77, 3,5-Dimethyl-2-(4-methoxybenzyl)phenyl 7-deoxy-D-glycero-β-D-gluco-heptopyranoside]
  IC50: 25 nM

## CCCOc1ccc(Cc2c(F)cc(CO)cc2O[C@@H]2O[C@H]([C@@H](C)O)[C@@H](O)[C@H](O)[C@H]2O)cc1 [Example 74, 3-Fluoro-5-hydroxymethyl-2-(4-propoxybenzyl)phenyl 7-deoxy-D-glycero-β-D-gluco-heptopyranoside]
  IC50: 47 nM

## COc1ccc(Cc2c(Cl)cc(C)cc2O[C@@H]2O[C@H]([C@@H](C)O)[C@@H](O)[C@H](O)[C@H]2O)cc1 [Example 43, 3-Chloro-5-methyl-2-(4-methoxybenzyl)phenyl 7-deoxy-D-glycero-β-D-gluco-heptopyranoside]
  IC50: 61 nM

## COc1ccc(Cc2ccc(CO)cc2O[C@@H]2O[C@H]([C@@H](C)O)[C@@H](O)[C@H](O)[C@H]2O)cc1 [Example 9, 2-(4-Methoxybenzyl)-5-hydroxymethylphenyl 7-deoxy-D-glycero-β-D-gluco-heptopyranoside]
  IC50: 9.4 nM

## CCOc1ccc(Cc2ccc(CO)cc2O[C@@H]2O[C@H]([C@@H](C)O)[C@@H](O)[C@H](O)[C@H]2O)cc1 [Example 93, 2-(4-Ethoxybenzyl)-5-hydroxymethylphenyl 7-deoxy-D-glycero-β-D-gluco-heptapyranoside]
  IC50: 13 nM

## CCOc1ccc(Cc2c(Cl)cc(CO)cc2O[C@@H]2O[C@H]([C@@H](C)O)[C@@H](O)[C@H](O)[C@H]2O)cc1 [Example 45, 3-Chloro-2-(4-ethoxybenzyl)-5-hydroxymethyl-phenyl 7-deoxy-D-glycero-β-D-gluco-heptopyranoside]
  IC50: 45 nM

## C[C@@H](O)[C@H]1O[C@@H](Oc2cc(CO)cc(F)c2Cc2ccc(C3CC3)cc2)[C@H](O)[C@@H](O)[C@@H]1O [Example 88, 2-(4-Cyclopropylbenzyl)-3-fluoro-5-hydroxymethylphenyl 7-deoxy-D-glycero-β-D-gluco-heptopyranoside]
  IC50: 19 nM

## CCc1ccc(Cc2c(C)cc(CO)cc2O[C@@H]2O[C@H]([C@@H](C)O)[C@@H](O)[C@H](O)[C@H]2O)cc1 [Example 89, 2-(4-Ethylbenzyl)-5-hydroxymethyl-3-methylphenyl 7-deoxy-D-glycero-β-D-gluco-heptopyranoside]
  IC50: 35 nM

## COc1ccc(Cc2ccc(CO)cc2O[C@@H]2O[C@H]([C@@H](C)O)[C@@H](O)[C@H](O)[C@H]2O)c(F)c1 [Example 82, 2-(2-Fluoro-4-methoxybenzyl)-5-hydroxymethylphenyl 7-deoxy-D-glycero-β-D-gluco-heptopyranoside]
  IC50: 9.4 nM

## COc1ccc(Cc2c(Cl)cccc2O[C@@H]2O[C@H]([C@@H](C)O)[C@@H](O)[C@H](O)[C@H]2O)cc1 [Example 42, 3-Chloro-2-(4-methoxybenzyl)phenyl 7-deoxy-D-glycero-β-D-gluco-heptopyranoside]
  IC50: 18 nM

## COc1ccc(Cc2c(Cl)cc(CO)cc2O[C@@H]2O[C@H]([C@H](C)O)[C@@H](O)[C@H](O)[C@H]2O)cc1 [Example 57, 3-Chloro-5-hydroxymethyl-2-(4-methoxybenzyl)phenyl 7-deoxy-L-glycero-β-D-gluco-heptopyranoside]
  IC50: 11 nM

## COc1ccc(Cc2ccc(CO)cc2O[C@@H]2O[C@H]([C@@H](C)O)[C@@H](O)[C@H](O)[C@H]2O)cc1F [Example 78, 2-(3-Fluoro-4-methoxybenzyl)-5-hydroxymethylphenyl 7-deoxy-D-glycero-β-D-gluco-heptopyranoside]
  IC50: 11 nM

## COc1ccc(Cc2c(OC)cc(CO)cc2O[C@@H]2O[C@H]([C@@H](C)O)[C@@H](O)[C@H](O)[C@H]2O)cc1 [Example 83, 5-Hydroxymethyl-3-methoxy-2-(4-methoxybenzyl)phenyl 7-deoxy-D-glycero-β-D-gluco-heptopyranoside]
  IC50: 39 nM

## C=Cc1cc(CO)cc(O[C@@H]2O[C@H]([C@@H](C)O)[C@@H](O)[C@H](O)[C@H]2O)c1Cc1ccc(OC)cc1 [Example 101, 5-Hydroxymethyl-2-(4-methoxybenzyl)-3-vinyl-phenyl 7-deoxy-D-glycero-β-D-gluco-heptopyranoside]
  IC50: 136 nM

## Cc1ccc(Cc2ccc(CO)cc2O[C@@H]2O[C@H]([C@@H](C)O)[C@@H](O)[C@H](O)[C@H]2O)cc1 [Example 98, 5-Hydroxymethyl-2-(4-methylbenzyl)phenyl 7-deoxy-D-glycero-β-D-gluco-heptapyranoside]
  IC50: 17 nM

## CCc1ccc(Cc2ccc(CCO)cc2O[C@@H]2O[C@H]([C@@H](C)O)[C@@H](O)[C@H](O)[C@H]2O)cc1 [Example 67, 2-(4-Ethylbenzyl)-5-(2-hydroxyethyl)phenyl 7-deoxy-D-glycero-β-D-gluco-heptopyranoside]
  IC50: 30 nM
